# Legend:
# [1] = system: morphine analgesia-non-effective Wistar rats; assay: Effect of enhancing morphine analgesia, tail-flick latency (Test 2); format: in vivo, rat
# Method: Effect of enhancing morphine analgesia was tested.
# To Wistar rats (10 week-age, male, body weight 250~300 g) was given intraperitoneally morphine at a dose of 0.5 mg/kg, and these rats receiving the morphine were classified into the group of morphine analgesia-effective rats and the group of morphine analgesia-non-effectiverats according to the classification method described in the "Showa Igakukai Zasshi" Vol. 39, No. 5, pages 537~542 (1979). […] The effect of analgesia was evaluated according to the method of tail-flick latency of rats described in the "Showa Igakukai Zasshi" Vol. 39, No. 5, pages 537~542 (1979). The evaluation of pain threshold of rats according to the tail-flick latency method was made as follows: Radiant heat stimulus was applied to the region of the rat tail which positioned 1 cm away from the tail tip and which had been colored black with a black-dye, and the time of latency involved in the tail flick, namely the period of time lapsing between the time of application of the heat stimulus and the time of the reflective flick response of the tail was measured. The quantity of the heat applied was so controlled that the average time of latency of the tail-flick response appearing in the control group of rats (receiving neither the test compound nor the morphine) was about 2.0 seconds. The tests were accomplished as long as the maximum value for the tail-flick latency was 7.0 seconds or less, as otherwise the skin of the rat tail could be damaged by the application of heat. In other words, if the time for the tail-flick latency was longer than 7.0 seconds, the tests were stopped to prevent the damage of the rat tail. The radiant heat stimulus was repeated 5 times for each test rat at an interval of 15 minutes and the times of latency in the flick response of the tail measured in each test were averaged. In each test, 5 rats were used.
# The difference in the time of the tail-flick latency between the test rats (receiving 250 mg/kg of the test compound plus 0.5 mg/kg of morphine) and the control rats (receiving 0.5 mg/kg of morphine alone) was calculated, and the effect for enhancement of morphine analgesia was estimated in term of the value of percentages which were calculated by the following equation: [formula]
# [2] = target: T1, enkephalinase (Rattus norvegicus, UniProt P07861); assay: Inhibitory activity against enkephalinase (Test 1); format: biochemical; settings: enkephalinase from corpus striatum of rat brain; substrate methionine-enkephaline; 37° C., 1 hour; pH 7.7
# T1 construct: homogenizing corpus striatum of rat brain and by partial purification of the brain homogenate; from tissue; host or cells: rat brain corpus striatum, homogenate partially purified by the method of Gorenstein et al
# T1 sequence (P07861 1-750): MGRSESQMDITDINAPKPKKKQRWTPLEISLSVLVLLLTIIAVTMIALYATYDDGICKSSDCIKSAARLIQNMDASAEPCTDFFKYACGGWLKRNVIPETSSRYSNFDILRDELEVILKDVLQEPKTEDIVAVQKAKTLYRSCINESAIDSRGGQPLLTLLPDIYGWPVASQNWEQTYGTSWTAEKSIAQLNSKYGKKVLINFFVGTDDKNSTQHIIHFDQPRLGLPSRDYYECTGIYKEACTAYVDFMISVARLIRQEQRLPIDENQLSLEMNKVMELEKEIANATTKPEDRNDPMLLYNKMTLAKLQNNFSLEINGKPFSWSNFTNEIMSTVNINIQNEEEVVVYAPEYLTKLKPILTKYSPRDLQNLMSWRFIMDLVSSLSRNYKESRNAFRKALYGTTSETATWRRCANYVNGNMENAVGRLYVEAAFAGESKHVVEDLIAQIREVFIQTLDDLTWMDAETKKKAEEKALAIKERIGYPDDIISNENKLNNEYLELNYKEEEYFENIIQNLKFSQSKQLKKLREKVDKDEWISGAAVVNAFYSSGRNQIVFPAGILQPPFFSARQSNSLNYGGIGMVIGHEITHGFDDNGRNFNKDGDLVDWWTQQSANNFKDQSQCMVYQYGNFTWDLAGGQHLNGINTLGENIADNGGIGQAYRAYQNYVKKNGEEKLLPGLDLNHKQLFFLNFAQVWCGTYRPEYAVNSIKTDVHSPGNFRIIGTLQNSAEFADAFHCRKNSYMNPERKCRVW
# Method: Inhibitory activity against enkephalinase were tested.
# A preparation of enkephalinase was made by homogenizing corpus striatum of rat brain and by partial purification of the brain homogenate according to the method of Gorenstein et al (see the "Life Science" Vol. 25, 2065~2070 (1979) Pergamon Press, U.S.A.).
# A test compound was dissolved in a mixture of Trishydrochloride buffered solution (pH 7.7) and an aqueous 1% Triton X100 (an active surfectant) to such a concentration that the added quantity of the test compound amounted to one-tenth of the volume of said mixture. To the solution of the test compound so prepared was added the enkephalinase, followed by incubation for five minutes at ambient temperature and further by addition of methionine-enkephaline as the substrate. The admixture so obtained was incubated at 37° C. for 1 hour and then subjected to a high-performance liquid chromatography in such a manner that the Tyr-Gly-GLy (a fragment of the methionine-enkephaline) formed by the enzymatic degradation of methionine-enkephaline was isolated in some fractions of the eluate and the quantity of Tyr-Gly-GLy was determined by an electro-chemically analysing detector. In this way, IC50 value of the test compound, namely the dose of the test compound required for 50% inhibition of the enkephalinase was measured.
# [3] = system: mice of ddy-strain; assay: Analgesic activity by the acetic acid-writhing method (Test 3); format: in vivo, mouse; settings: for Number of Writhings (Average value ± standard error): 30 minutes before 0.6% acetic acid i.p., counted during 15 minutes; for Suppression of writhing reactions: compared to the control group
# Text: Analgesic activity of test compound was estimated according to the acetic acid-writhing method.
# Mice groups each containing 10 mice of ddy-strain (male, 5 weeks-aged, average body weight about 20 grams) were employed as the test animal. A suspension of the test compound, D-Phe-AHPA suspended in an aqueous solution containing 0.5% of gum arabic and 7% of an active surfectant (consisting of the reaction products of hydrogenated castor oil with polyoxyethylene, commercially available under a registered tradename "Nikkol HCO-60", a product of Nihon Nyukazai Co., Ltd., Japan) was subcutaneously injected into each mouse at a dosage of 30, 150 or 250 mg/kg of the test compound. The above-mentioned suspension so subcutaneously injected was containing the test compound at such a concentration that 0.2 ml of said suspension as injected into each mouse provided the dosage of 30 mg/kg, 150 mg/kg or 250 mg/kg of the test compound. 30 Minutes later, […] of an aqueous solution of 0.6% of acetic acid was injected intraperitoneally into the mice. 5 Minutes after the injection of the aqueous acetic acid, estimation was commenced to count the number of the writhing reaction of the treated mice (the motions such as abdominal constrictions and extensions of the treated mice as induced by the injection of acetic acid) which took place during the subsequent 15 minutes (see the Japanese medical book "Iyaku Kaihatsu Koza" Vol. 5 pages 282~286, published from Chijin-Shokan in 1971 and an English medicinal journal "Brit. J. Pharmacol." 32, pages 295~310, 1968). For control, another mice groups received the subcutaneous administration of an aqueous solution containing no test compound but containing 0.5% of gum arabic and 7% of the active surfectant (Nikkol HCO-60). The rate (%) of suppressing the writhing reactions was evaluated as compared to the control group. "Students-t-test" was employed for the statistical analysis of the test results.
# [4] = system: morphine analgesia-non-effective Wistar rats; assay: Effect of enhancing morphine analgesia, tail-flick latency (Test 2); format: in vivo, rat; remark: listed apart in the source
SMILES,"Morphine Analgesia enhancement ([1]; 250 mg/kg test compound i.p., 10 minutes later 0.5 mg/kg morphine i.p., versus 0.5 mg/kg morphine alone, tail-flick latency) [%]",IC50 [2] [µM],Number of Writhings (Average value ± standard error) ([3]; 30 mg/kg s.c.),Suppression of writhing reactions ([3]; 30 mg/kg s.c.) [%],Number of Writhings (Average value ± standard error) ([3]; 150 mg/kg s.c.),Suppression of writhing reactions ([3]; 150 mg/kg s.c.) [%],Number of Writhings (Average value ± standard error) ([3]; 250 mg/kg s.c.),Suppression of writhing reactions ([3]; 250 mg/kg s.c.) [%],"Dose dependence of suppression of acetic acid-writhing reaction ([3]; 30, 150 or 250 mg/kg s.c., compound alone)",Morphine Analgesia enhancement ([1]; morphine alone 0.5 mg/kg (comparative)) [%],Morphine Analgesia enhancement ([4]; morphine alone 2 mg/kg (comparative)) [%],Morphine Analgesia enhancement ([4]; morphine alone 3 mg/kg (comparative)) [%]
"N[C@H](Cc1ccccc1)C(=O)N[C@H](Cc1ccccc1)[C@H](O)C(=O)O [Compound 10, (2S,3R)-3-N--(R)-phenylalanylamino-2-hydroxy-4-phenylbutanoic acid]",35.0,740,48.3 ± 3.7,37.4,43.9 ± 3.8,43.1,31.3 ± 8.0,59.4,suppressed the acetic acid-writhing reaction in the dosage-depending manner,–,–,–
"CN1CC[C@]23c4c5ccc(O)c4O[C@H]2[C@@H](O)C=C[C@H]3[C@H]1C5 [Morphine, morphine]",–,–,–,–,–,–,–,–,–,0,28.4,35.1

# — patent publication US4474764A, “3-Amino-2-hydroxy-4-phenylbutanoic acid derivatives and pharmaceutical composition containing the same” (Zaidan Hojin Biseibutsu Kagaku Kenkyu Kai, priority 1981, dated 1984)
